Test results published in patent US10889572B2, “Reactive oxygen species scavengers and use for treating diseases” (XW LABORATORIES INC., priority 2017, dated 2021).
Where a name gives a salt, the structure may show the parent alone.

What follows are compounds tested on HT-1080 (fibrosarcoma) cells (assay: Primary screening by ferroptosis assay (Erastin-induced, cell viability, CellTiter-Glo)). Settings: HT-1080 cells, 30 hours, % remaining activity, read-out: EC50, Inhibition for Ferroptosis in HT-1080 Cell.
Format: cell-based
Protocol: Cell Lines and Media: HT-1080 (fibrosarcoma) cells were obtained from American Type Culture Collection. Cells were grown in EMEM media, 10% Heat-Inactivated FBS, and penicillin-streptomycin mix (Invitrogen). Cells were maintained at 37° C. and 5% CO2 in a tissue culture incubator.
Cell Viability Assay: Seed 10,000 cell/well of HT-1080 cells with 195 μL growth media in black and clear bottom 96-well plates (Cat #Corning 3904) and allow cells to adhere overnight. The next day, dilute test compound by 2-fold dilution into 12 points with medium containing 400 μM Erastin. Transfer 5 μL of compounds solution into growth medium in triplicated wells. 30 hours later, add Cell Titer-Glo® Luminescent cell viability assay reagent (Cat #, Promega G8081) to measure HT-1080 cell viability according to the manufacture protocol. Briefly, aspirate 100 μL medium, and add 50 μL CellTiter-Glo® Luminescent reagent to each well and incubated for 30 minutes at room temperature to stabilize the Luminescent signal. Seal the plates and centrifuged for 1 minute at 1,000 rpm to remove bubbles. Shake the plates for 1 minute on an orbital shaker. Read the plate to detect Luminescent signal with EnSpire Multimode Plate Reader (PerkinElmer). The remaining activity % is used to evaluate Erastin induced ferroptosis in HT-1080 cells and expressed as the following formula: % Remaining Activity−100×[(Sample−Backgroundavg)/(Vehicle−Background avg)]
Sample: Readout from the test compound
Vehicle: Readout from the vehicle sample
Background: Readout from the Erastin only treatment
Dose response curve is graphed by using the non-linear regression analysis (formula equation 201) in XLFit (Excel add-in software) for the average % remaining activity from triplicates, and the EC50 values is then calculated. In this anti-ferroptosis assay, ferrostatin-1, and XJB-5-131 are included as reference. The acceptance criteria were set based on historical result, mean±2.58*SD in logarithmic scale, meanwhile Z′>0.5.
`COC(=O)[C@H](CCCNC(=O)OC1CC(C)(C)N(O)C(C)(C)C1)NC(=O)[C@@H](NC(=O)[C@@H]1CCCN1C(=O)[C@H](/C=C/[C@H](CC(C)C)NC(=O)OC(C)(C)C)Cc1ccccc1)C(C)C` [XXXIX, (S)-methyl 2-((S)-2-((S)-1-((2S,5S,E)-2-benzyl-5-((tert-butoxycarbonyl)amino)-7-methyloct-3-enoyl)pyrrolidine-2-carboxamido)-3-methylbutanamido)—5-((((1-hydroxy-2,2,6,6-tetramethylpiperidin-4-yl)oxy)carbonyl)amino)pentanoate] was tested, and the EC50 was 142 nM.
Compound `CC(C)C[C@@H](/C=C/[C@H](Cc1ccccc1)C(=O)N1CCC[C@H]1C(=O)N[C@@H](CCCNC(=O)OC1CC(C)(C)N(O)C(C)(C)C1)C(=O)NC(C)C)NC(=O)OC(C)(C)C` [Example XXXXV] has an EC50 of 144 nM.

Same assay, conditions: Homo sapiens, HT-1080, 30 h, HT-1080 cells, % remaining activity, read-out: EC50, Inhibition for Ferroptosis in HT-1080 Cell
Work on `CC(C)C[C@@H](/C=C/[C@H](Cc1ccccc1)C(=O)N1CCC[C@H]1C(=O)N[C@H](C(=O)N[C@@H](CCCNC(=O)OCc1ccccc1)C(=O)NC1CC(C)(C)N(O)C(C)(C)C1)C(C)C)NC(=O)OC1CC(C)(C)N(O)C(C)(C)C1` [Example XXV, 1-Hydroxy-2,2,6,6-tetramethylpiperidin-4-yl N-[(4S,5E,7S)-7-benzyl-8-[(2S)—2-{[(1S)—1-{[(1S)—4-{[(benzyloxy)carbonyl]amino}-1-[(1-hydroxy-2,2,6,6-tetramethylpiperidin-4-yl)carbamoyl]butyl]carbamoyl}-2-methylpropyl]carbamoyl}pyrrolidin-1-yl]-2-methyl-8-oxooct-5-en-4-yl]carbamate dihydrochloride] yielded an EC50 of 255 nM.
`CC(C)C[C@H](N)/C=C/[C@H](Cc1ccccc1)C(=O)N1CCC[C@H]1C(=O)N[C@H](CCCNC(=O)OCc1ccccc1)C(=O)NC1CC(C)(C)N(O)C(C)(C)C1` [Example XIII, Benzyl N-[(4R)—4-{[(2S)-1-[(2S,3E,5S)-5-amino-2-benzyl-7-methyloct-3-enoyl]pyrrolidin-2-yl]formamido}-4-[(1-hydroxy-2,2,6,6-tetramethyl-piperidin-4-yl)carbamoyl]butyl]carbamate dihydrochloride] gave an EC50 of 262 nM.
In the case of `COC(=O)[C@H](CCCNC(=O)OC1CC(C)(C)N(O)C(C)(C)C1)NC(=O)[C@@H]1CCCN1C(=O)[C@H](/C=C/[C@H](CC(C)C)NC(=O)OC(C)(C)C)Cc1ccccc1` [Example XVIII], the EC50 is reported as 86 nM.
For `CC(C)C[C@@H](/C=C/[C@H](Cc1ccccc1)C(=O)N1CCC[C@@H]1C(=O)N[C@@H](CCCNC(=O)OCc1ccccc1)C(=O)NC1CC(C)(C)N(O)C(C)(C)C1)NC(=O)OC(C)(C)C` [Example XVII, Benzyl N-[(4S)—4-{[(2R)-1-[(2S,3E,5S)-2-benzyl-5-{[(tert-butoxy)carbonyl]amino}-7-methyloct-3-enoyl]pyrrolidin-2-yl]formamido}-4-[(1-hydroxy-2,2,6,6-tetramethylpiperidin-4-yl)carbamoyl]butyl]carbamate], the EC50 was 284 nM.
Compound `CC(C)C[C@@H](/C=C/[C@H](Cc1ccccc1)C(=O)N1CCC[C@H]1C(=O)N[C@@H](CCCNC(=O)OCc1ccccc1)C(=O)OC1CC(C)(C)N(O)C(C)(C)C1)NC(=O)OC(C)(C)C` [Example XXXX, (S)-1-Oxyl-2,2,6,6-tetramethylpiperidin-4-yl 2-((S)-1-((2S,5S,E)-2-benzyl-5-((tert-butoxycarbonyl)amino)-7-methyloct-3-enoyl)pyrrolidine-2-carboxamido)-5-(((benzyloxy)carbonyl)amino)pentanoate] has an EC50 of 140 nM.
For `CC(C)C[C@@H](/C=C/[C@H](Cc1ccccc1)C(=O)N1CCC[C@H]1C(=O)N[C@@H](CCCCNC(=O)C1CC(C)(C)N(O)C1(C)C)C(=O)OC(C)C)NC(=O)OC(C)(C)C` (stereo partly drawn) [Example XXXII, Propan-2-yl (2S)—2-{[(2S)-1-[(2S,3E,5S)-2-benzyl-5-{[(tert-butoxy)carbonyl]amino}-7-methyloct-3-enoyl]pyrrolidin-2-yl]formamido}-6-[(1-oxyl-2,2,5,5-tetramethylpyrrolidin-3-yl)formamido]-hexanoate], the EC50 was 573 nM.
